{"source": "patent US4419447A", "about": "“Fermentation process for producing demycinosyltylosin” (Eli Lilly and Company, priority 1981, dated 1983)", "key": {"[1]": {"test_system": "Streptococcus pneumoniae Park I", "assay": "Experimental infection in mice", "assay_type": "in vivo"}, "[2]": {"test_system": "Streptococcus pyogenes C203", "assay": "Experimental infection in mice", "assay_type": "in vivo", "settings": "two doses"}, "Mycoplasma gallisepticum [3]": {"test_system": "Mycoplasma gallisepticum", "assay": "Treatment of induced Mycoplasma gallisepticum infection in chicks with DMT tartrate", "assay_type": "in vivo", "settings": "infected control 231", "method": "(§1) Activity against Mycoplasma species is an especially useful aspect of the DMT compounds. Tables 10 and 11 summarize experiments using DMT and DMT tartrate for the treatment of induced Mycoplasma gallisepticum infections in chickens. The compounds were administered in the drinking water (at 1 and 2 grams per gallon for 1 to 3 days) or by injection at 15 or 30 mg/kg of body weight."}, "[4]": {"test_system": "Streptomyces fradiae NRRL 12170", "assay": "Antibiotic sensitivity of S. fradiae NRRL 12170 (sensitivity discs on seeded agar plates)", "assay_type": "cell-based", "source_text": "(§2) ^a Determined by using sensitivity discs padded onto seededagar"}, "[5]": {"test_system": "Streptomyces fradiae E2724.1", "assay": "Antibiotic sensitivity of S. fradiae E2724.1 (sensitivity discs on seeded agar plates)", "assay_type": "cell-based", "source_text": "as §2"}, "[6]": {"test_system": "gram-positive microorganisms and Mycoplasma species", "assay": "Inhibition of growth of pathogenic bacteria (general statement)", "assay_type": "cell-based", "source_text": "(§3) Table 8 summarizes the minimal inhibitory concentrations (MIC), as measured by standard agar-dilution assays, at which DMT (free base) inhibits certain bacteria."}, "physchem": {"assay": "physchem", "assay_type": "physicochemical", "settings": "66% aqueous dimethylformamide"}, "Mycoplasma gallisepticum [7]": {"test_system": "Mycoplasma gallisepticum", "assay": "Treatment of induced Mycoplasma gallisepticum infection in chicks with DMT base", "assay_type": "in vivo", "settings": "infected control 304", "method": "as §1"}, "[8]": {"assay_type": "physicochemical", "source_text": "DMT base is soluble in water and in most polar organic solvents, such as acetone, methanol, ethanol, chloroform, dimethylformamide and dimethyl sulfoxide. DMT acid addition salts are more soluble in water than is DMT base."}, "[9]": {"assay": "Acute toxicity of DMT in mice", "settings": "mouse, in vivo", "source_text": "In these studies, 4- to 5-week-old Harlan ICR mice were used. […]"}, "[10]": {"test_system": "Streptococcus pyogenes C203", "assay": "In vitro activity, standard agar-dilution assay", "assay_type": "cell-based", "source_text": "as §3"}, "Pasteurella multocida": {"test_system": "Pasteurella multocida", "assay": "In vitro activity, standard agar-dilution assay", "assay_type": "cell-based", "source_text": "as §3"}, "[11]": {"test_system": "Staphylococcus aureus 3055", "assay": "In vitro activity, standard agar-dilution assay", "assay_type": "cell-based", "source_text": "as §3"}, "[12]": {"test_system": "Staphylococcus aureus 209P", "assay": "In vitro activity, standard agar-dilution assay", "assay_type": "cell-based", "source_text": "as §3"}, "Mycoplasma hyopneumoniae": {"test_system": "Mycoplasma hyopneumoniae", "assay": "In vitro activity, standard agar-dilution assay", "assay_type": "cell-based", "settings": "Mesomycoplasma hyopneumoniae", "source_text": "as §3"}, "[13]": {"test_system": "Streptococcus sp. (Group D) 282", "assay": "In vitro activity, standard agar-dilution assay", "assay_type": "cell-based", "source_text": "as §3"}, "[14]": {"test_system": "Streptococcus pneumoniae Park I", "assay": "In vitro activity, standard agar-dilution assay", "assay_type": "cell-based", "source_text": "as §3"}, "Pasteurella hemolytica": {"test_system": "Pasteurella hemolytica", "assay": "In vitro activity, standard agar-dilution assay", "assay_type": "cell-based", "source_text": "as §3"}, "Mycoplasma gallisepticum [15]": {"test_system": "Mycoplasma gallisepticum", "assay": "In vitro activity, standard agar-dilution assay", "assay_type": "cell-based", "settings": "Mycoplasmoides gallisepticum", "source_text": "as §3"}, "Mycoplasma hyorhinis": {"test_system": "Mycoplasma hyorhinis", "assay": "In vitro activity, standard agar-dilution assay", "assay_type": "cell-based", "source_text": "as §3"}, "[16]": {"test_system": "Staphylococcus aureus 3055", "assay": "Experimental infection in mice", "assay_type": "in vivo", "settings": "two doses"}, "[17]": {"settings": "1.0 g/gal, 1-3 days, drinking water"}, "[18]": {"settings": "2.0 g/gal, 1-3 days, drinking water"}}, "note": "Structures can show the parent of a compound that is named as a salt. Where two headings read alike, the source gives them in different places."}
{"smiles": "CCC1OC(=O)CC(O)C(C)C(OC2OC(C)C(OC3CC(C)(O)C(O)C(C)O3)C(N(C)C)C2O)C(CC=O)CC(C)C(=O)C=CC(C)=CC1CO", "note": "(stereo not shown) [DMT Tartrate]", "values": [{"measurement": "ED50", "setting": "[1]; po", "result": 100, "unit": "mg/kg"}, {"measurement": "ED50", "setting": "[1]; sc", "result": "≤ 9.9", "unit": "mg/kg"}, {"measurement": "ED50", "setting": "[2]; oral, challenge 11.3 × LD50", "result": 172, "unit": "mg/kg × 2"}, {"measurement": "ED50", "setting": "[2]; subcutaneous, challenge 13 × LD50", "result": 2.3, "unit": "mg/kg × 2"}, {"measurement": "Avg. Wt.", "setting": "Mycoplasma gallisepticum [3]; 30 mg/kg, injection", "result": 330, "unit": "g"}, {"measurement": "Avg. Wt.", "setting": "Mycoplasma gallisepticum [3]; [17]", "result": 354, "unit": "g"}, {"measurement": "Avg. Wt.", "setting": "Mycoplasma gallisepticum [3]; [18]", "result": 458, "unit": "g"}]}
{"smiles": "O=C(Cc1cccs1)N[C@@H]1C(=O)N2C(C(=O)[O-])=C(C[n+]3ccccc3)CS[C@H]12", "note": "[Cephaloridine]", "values": [{"measurement": "Antibiotic Sensitivity", "setting": "[4]; disc conc. 30 μg", "result": "+"}, {"measurement": "Antibiotic Sensitivity", "setting": "[5]; disc conc. 30 μg", "result": "+"}]}
{"smiles": "CN[C@H](CC(C)C)C(=O)N[C@H]1C(=O)N[C@@H](CC(N)=O)C(=O)N[C@H]2C(=O)N[C@H]3C(=O)N[C@H](C(=O)N[C@H](C(=O)O)c4cc(O)cc(O)c4-c4cc3ccc4O)[C@H](O)c3ccc(c(Cl)c3)Oc3cc2cc(c3O[C@@H]2O[C@H](CO)[C@@H](O)[C@H](O)[C@H]2O[C@H]2C[C@](C)(N)[C@H](O)[C@H](C)O2)Oc2ccc(cc2Cl)[C@H]1O", "note": "[Vancomycin]", "values": [{"measurement": "Antibiotic Sensitivity", "setting": "[4]; disc conc. 30 μg", "result": "+"}, {"measurement": "Antibiotic Sensitivity", "setting": "[5]; disc conc. 30 μg", "result": "+"}]}
{"smiles": "CCC1OC(=O)CC(O)C(C)C(OC2OC(C)C(OC3CC(C)(O)C(O)C(C)O3)C(N(C)C)C2O)C(CCO)CC(C)C(=O)C=CC(C)=CC1CO", "note": "(stereo not shown) [dihydro-DMT, 20-dihydro-23-demycinosyltylosin]", "values": [{"measurement": "inhibition of growth of pathogenic organisms", "setting": "[6]", "result": "especially active against gram-positive microorganisms and Mycoplasma species"}]}
{"smiles": "CN(C)[C@@H]1C(O)=C(C(N)=O)C(=O)[C@@]2(O)C(O)=C3C(=O)c4c(O)cccc4[C@@](C)(O)[C@H]3C[C@@H]12", "note": "[Tetracycline]", "values": [{"measurement": "Antibiotic Sensitivity", "setting": "[4]; disc conc. 30 μg", "result": "+"}, {"measurement": "Antibiotic Sensitivity", "setting": "[5]; disc conc. 30 μg", "result": "+"}]}
{"smiles": "[H]/N=C(/N)N[C@H]1[C@H](O)[C@@H](O)[C@H](O[C@@H]2O[C@@H](C)[C@](O)(C=O)[C@H]2O[C@@H]2O[C@@H](CO)[C@H](O)[C@@H](O)[C@@H]2NC)[C@@H](N/C(N)=N\\[H])[C@@H]1O", "note": "[Streptomycin]", "values": [{"measurement": "Antibiotic Sensitivity", "setting": "[4]; disc conc. 10 μg", "result": "+"}, {"measurement": "Antibiotic Sensitivity", "setting": "[5]; disc conc. 10 μg", "result": "+"}]}
{"smiles": "CCC[C@@H]1C[C@@H](C(=O)N[C@@H]([C@H]2O[C@H](SC)[C@H](O)[C@@H](O)[C@H]2O)[C@@H](C)O)N(C)C1", "note": "[Lincomycin]", "values": [{"measurement": "Antibiotic Sensitivity", "setting": "[4]; disc conc. 2 μg", "result": "-"}, {"measurement": "Antibiotic Sensitivity", "setting": "[5]; disc conc. 2 μg", "result": "-"}]}
{"smiles": "CCC1OC(=O)CC(O)C(C)C(OC2OC(C)C(OC3CC(C)(O)C(O)C(C)O3)C(N(C)C)C2O)C(CC=O)CC(C)C(=O)C=CC(C)=CC1CO", "note": "(stereo not shown) [DMT, 23-demycinosyltylosin]", "values": [{"measurement": "pKa", "setting": "physchem", "result": "~7.25"}, {"measurement": "Avg. Wt.", "setting": "Mycoplasma gallisepticum [7]; 15 mg/kg, injection", "result": 453, "unit": "g"}, {"measurement": "Avg. Wt.", "setting": "Mycoplasma gallisepticum [7]; [17]", "result": 392, "unit": "g"}, {"measurement": "Avg. Wt.", "setting": "Mycoplasma gallisepticum [7]; [18]", "result": 397, "unit": "g"}, {"measurement": "ED50", "setting": "[1]; po, two doses, challenge 2.7 × LD50", "result": 66, "unit": "mg/kg"}, {"measurement": "ED50", "setting": "[1]; sc, subcutaneous, two doses, challenge 3 × LD50", "result": 15.7, "unit": "mg/kg"}, {"measurement": "solubility in most polar organic solvents", "setting": "[8]", "result": "soluble"}, {"measurement": "solubility in water", "setting": "[8]", "result": "soluble"}, {"measurement": "ED50", "setting": "[2]; Streptococcus pyogenes, C203, po, oral, challenge 11.3 × LD50, read-out: ED50", "result": 218, "unit": "mg/kg"}, {"measurement": "ED50", "setting": "[2]; Streptococcus pyogenes, C203, sc, subcutaneous, challenge 13 × LD50, read-out: ED50", "result": 2.2, "unit": "mg/kg"}, {"measurement": "LD50", "setting": "[9]; ip, females", "result": 325, "unit": "mg/kg"}, {"measurement": "LD50", "setting": "[9]; ip, males", "result": 721, "unit": "mg/kg"}, {"measurement": "LD50", "setting": "[9]; iv, females", "result": 186, "unit": "mg/kg"}, {"measurement": "LD50", "setting": "[9]; iv, males", "result": 100, "unit": "mg/kg"}, {"measurement": "LD50", "setting": "[9]; po, females", "result": "> 5000", "unit": "mg/kg"}, {"measurement": "LD50", "setting": "[9]; sc, females", "result": 5450, "unit": "mg/kg"}, {"measurement": "MIC", "setting": "[10]", "result": 0.25, "unit": "µg/mL"}, {"measurement": "MIC", "setting": "Pasteurella multocida", "result": 3.12, "unit": "µg/mL"}, {"measurement": "MIC", "setting": "[11]", "result": 1, "unit": "µg/mL"}, {"measurement": "MIC", "setting": "[12]", "result": 0.25, "unit": "µg/mL"}, {"measurement": "MIC", "setting": "Mycoplasma hyopneumoniae", "result": 0.195, "unit": "µg/mL"}, {"measurement": "MIC", "setting": "[13]", "result": 0.5, "unit": "µg/mL"}, {"measurement": "MIC", "setting": "[14]", "result": 0.13, "unit": "µg/mL"}, {"measurement": "MIC", "setting": "Pasteurella hemolytica", "result": 12.5, "unit": "µg/mL"}, {"measurement": "MIC", "setting": "Mycoplasma gallisepticum [15]", "result": 0.097, "unit": "µg/mL"}, {"measurement": "MIC", "setting": "Mycoplasma hyorhinis", "result": 0.78, "unit": "µg/mL"}, {"measurement": "inhibition of growth of pathogenic organisms", "setting": "[6]", "result": "especially active against gram-positive microorganisms and Mycoplasma species"}, {"measurement": "ED50", "setting": "[16]; Staphylococcus aureus, 3055, sc, subcutaneous, challenge 21 × LD50", "result": 2.7, "unit": "mg/kg"}, {"measurement": "ED50", "setting": "[16]; Staphylococcus aureus, 3055, oral, challenge 26 × LD50", "result": 64, "unit": "mg/kg"}]}
{"smiles": "O=C(N[C@H](CO)[C@H](O)c1ccc([N+](=O)[O-])cc1)C(Cl)Cl", "note": "[Chloramphenicol]", "values": [{"measurement": "Antibiotic Sensitivity", "setting": "[4]; disc conc. 30 μg", "result": "+"}, {"measurement": "Antibiotic Sensitivity", "setting": "[5]; disc conc. 30 μg", "result": "+"}]}
